Values quoted from earlier work, collected in patent US20020010148A1, “Oral combinations of hydroxocobalamin and folic acid” (priority 1999, published 2002).

Assays:
homocysteine levels = conditions: 0.4 mg hydroxocobalamin alone or with 0.5 mg/day or 5 mg/day folic acid, oral
[1] = oral doses of 1 mg or more; without intrinsic factor; dose-dependent
vitamin B12 deficiency = conditions: oral 1-2 mg/day; patients with pernicious anaemia

| Compound | contribution to lowering of homocysteine levels (homocysteine levels) | other results |
| --- | --- | --- |
| Nc1nc2ncc(CNc3ccc(C(=O)N[C@@H](CCC(=O)O)C(=O)O)cc3)nc2c(=O)[nH]1 [folic acid] | main effect |  |
| C/C1=C2/[N-][C@H]([C@H](CC(N)=O)[C@@]2(C)CCC(=O)NC[C@@H](C)OP(=O)([O-])O[C@H]2[C@@H](O)[C@@H](n3cnc4cc(C)c(C)cc43)O[C@@H]2CO)[C@]2(C)N=C(/C(C)=C3N=C(/C=C4N=C1[C@@H](CCC(N)=O)C\4(C)C)[C@@H](CCC(N)=O)[C@]\3(C)CC(N)=O)[C@@H](CCC(N)=O)[C@]2(C)CC(N)=O.[Co+3].[OH-] [hydroxocobalamin] | contributed little |  |
| Vitamin B12 |  | passive absorption, share of the oral dose [1]: 1-2% |
| cyanocobalamin |  | adequacy of oral dosing to provide vitamin B12 (vitamin B12 deficiency): fully adequate |
